For orientation: pIC50 means the IC50 on a negative log10 scale, so that one unit is a factor of ten.

Assay [1] concerns extracellular HBeAg level (surrogate marker for cccDNA) in HepDES19 cells. The assay is described as follows: HepDES19 primary screen assay. It counts as cell-based, HBV. Conditions: Hepatitis B virus, 120 h, 5 days compound incubation, HBeAg ELISA. The method in brief: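 HepDES19 cells, Tet-withdrawn 8 days to induce pgRNA, then seeded 24 h before dosing with half-log compound dilutions (1% DMSO final) for 5 days at 37 °C. Extracellular HBeAg by ELISA, viability by CCK-8; IC50 from 4-parameter logistic fit.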
Background: An ELISA detects its analyte on a solid surface through an enzyme-linked reagent.

The subject of assay [2] is extracellular HBsAg level in HBV-infected PHH. The assay is described as follows: Cryopreserved primary human hepatocytes (PHH) assay, HBsAg. It counts as cell-based. The note with it: Hepatitis B virus, Hepatocyte, 216 h, read-out: HBsAg IC50. The protocol: (§1) Cryopreserved PHH (BioreclamationIVT, Lot YJM) was thawed at 37° C. and gently transferred into pre-warmed InVitroGRO HT medium (BioreclamationIVT, Cat. S03317). The mixture was centrifuged at 70 relative centrifugal force (RCF) for 3 minutes at RT, and the supernatant was discarded. Pre-warmed InVitroGRO CP medium (BioreclamationIVT, Cat # S03316) was added to the cell pellet to gently re-suspend cells. The cells were seeded at the density of 5.8×10^4 cells per well to collagen I coated 96-well plate (Gibco, Cat. A1142803) with the InVitroGRO CP medium. All plates were incubated at 37° C. with 5% CO2 and 85% humidity.
(§2) At 20 hours after plating, the medium was changed to PHH culture medium (Dulbecco's Modified Eagle Medium (DMEM)/F12 (1:1) (Gibco, Cat. 11320-033), 10% fetal bovine serum (Gibco Cat. 10099141), 100 U/mL penicillin, 100 μg/mL streptomycin (Gibco, Cat. 151401-122), 5 ng/mL human epidermal growth factor (Invitrogen Cat. PHG0311L), 20 ng/mL dexamethasone (Sigma, Cat. D4902) and 250 ng/mL human recombinant insulin (Gibco, Cat. 12585-014)). And the cells were incubated at 37° C. with 5% CO2 and 85% humidity for 4 hours. The medium was then changed to pre-warmed PHH culture medium containing 4% polyethylene glycol (PEG) MW8000 (Sigma, Cat. P1458-50ML) and 1% DMSO (Sigma, Cat. D2650). 5.8×10^6 genomic equivalents of HBV were added into the medium.
(§3) At 24 hours post-infection, the cells were gently washed with PBS and refreshed with PHH culture medium supplemented with 1% DMSO, and 0.25 mg/mL Matrix gel (Corning, Cat. 356237) at 200 μL per well. All plates were immediately placed in at 37° C. CO2 incubator.
(§4) 24 hours later, serial dilutions of compounds made with DMSO were further diluted with the same culture medium (PHH culture medium supplemented with 1% DMSO and 0.25 mg/mL Matrix gel as described above) before they were added to the cells to reach desired final compound concentrations and 1% DMSO concentration. The medium containing the compounds were refreshed every three days.
(§5) At 9 days post-compound treatment, extracellular HBsAg level were measured with Chemiluminescence Immuno Assay (CLIA) kit (Autobio, HBsAg Quantitative CLIA). Extracellular HBV DNA was extracted by MagNA Pure 96 system (Roche) and then determined by quantitative PCR with the following primers and probe: HBV-Forward Primer (SEQ ID NO:2): […] (5′ to 3′); HBV-Reverse Primer (SEQ ID NO:3): […](5′ to 3′); HBV-Probe: 5′+tetramethylrhodamine+SEQ ID NO:4+black hole quencher 2-3′, wherein SEQ ID NO:4 is […].
(§6) HBsAg IC50 and HBV DNA IC50 values were derived from the dose-response curve using 4 parameter logistic curve fit method.

Assay [3] deals with extracellular HBV DNA in HBV-infected PHH. The assay is described as follows: Cryopreserved primary human hepatocytes (PHH) assay, HBV DNA. In kind it is cell-based. The note with it: Hepatitis B virus, Hepatocyte, 216 h; cryopreserved PHH infected with HBV, 9 days post-compound treatment, quantitative PCR. The protocol:
as §1, §2, §3, §4, §5, §6

SMILES strings stand for the structures. pIC50: −log10 of the molar value.

Turning to `O=C(O)C1CCN(c2ccc3c(=O)c4cccc(Cl)c4oc3c2)C1` (centres unmarked) [Example 2, 1-(5-chloro-9-oxo-xanthen-3-yl)pyrrolidine-3-carboxylic acid], the negative-log IC50 (pIC50) is 5.66 in assay [1], 5.88 in assay [2] and 5.64 in assay [3].

With `O=C(O)[C@@H]1CCN(c2ccc3c(=O)c4cccc(Cl)c4oc3c2)C1` [Example 3, (3R)-1-(5-chloro-9-oxo-xanthen-3-yl)pyrrolidine-3-carboxylic acid], the pIC50 in assay [1] was 5.91; in assay [2], 5.79; in assay [3] it was 5.79.

Take `O=C(O)[C@H]1CCN(c2ccc3c(=O)c4cccc(Cl)c4oc3c2)C1` [Example 4, (3S)-1-(5-chloro-9-oxo-xanthen-3-yl)pyrrolidine-3-carboxylic acid]: the pIC50 is 5.66 in assay [1], 5.80 in assay [2] and 5.71 in assay [3].

Take `O=C(O)C1CCN(c2ccc3c(=O)c4cccc(F)c4oc3c2)C1` (centres unmarked) [Example 5, 1-(5-fluoro-9-oxo-xanthen-3-yl)pyrrolidine-3-carboxylic acid]: the pIC50 is 5.48 in assay [1], 4.75 in assay [2] and 5.02 in assay [3].

Turning to `O=C(O)C1CCN(c2ccc3c(=O)c4c(Cl)ccc(Cl)c4oc3c2)C1` (centres unmarked) [Example 26, 1-(5,8-dichloro-9-oxo-xanthen-3-yl)pyrrolidine-3-carboxylic Acid], the figures for the negative logarithm of the IC50 (pIC50) in assay [1] and in assay [2] were 5.63 and 5.93, respectively.

(Values after patent publication US10611748B2, “Xanthone derivatives for the treatment of hepatitis B virus disease” (Hoffmann-La Roche Inc., priority 2017, dated 2020).)
